Patent US20230059124A1, “Novel TAS2R38 Bitter Taste Receptor Agonist” (priority 2021, published 2023)

Key:
TAS2R38 gene [1] = assay: qPCR TAS2R38 gene expression in hTBEC 1 culture; format: cell-based, human; details: for Tas2R38 3prime 2^-ddct / Tas2R38 5prime 2^-ddct / Tas2R38C DS 2^-ddct / Tas2R38 3prime ddCT / Tas2R38 5prime ddCT / Tas2R38C DS ddCT: 1 μM; for Tas2R38 3prime 2^-ddct / Tas2R38 5prime 2^-ddct / Tas2R38C DS 2^-ddct: control = 1.000
Text: (§1) Currently, very little is known about compounds that directly agonize and regulate TAS2R38 expression. Because of this, research related to the prenylflavonoid xanthohumol's effects on gene expression was compared with other TAS2R38 targeting compounds, namely sinigrin, a glucosinolate connected to the family of glucosides found in the Brassicaceae vegetable family and found in foods such as brussels sprouts and broccoli. […] selectively triggers the taster variant of the TAS2R38 receptor (Meyerhof, W. et al. The Molecular Receptive Ranges of Human TAS2R Bitter Taste Receptors. Chem Sense (2010) 35: 157-70.) […] was used as a comparator at a concentration of 1 the same concentration as xanthohumol (1 μM). Two hTBEC cultures were selected for this initial study. hTBEC 1 is derived from one of the most bitter-responsive cultures, which has a moderate/moderately low basal gene expression level of TAS2R38. hTBEC 2 is derived from a culture that responds to bitter stimuli, but has a high response in particular to TAS2R38 expression compared with other hTBEC repositories. RNA was harvested from cultures treated cultures and control cultures at 1 μM lead compound at 24 and 48 hours post treatment. Following is a table that explains the experimental paradigm in full: [table] In an effort to establishing a comprehensive understanding of xanthohumol's effects on gene expression, 3 unique primer pairs to accurately capture the TAS2R38 gene were developed as cultures. […] The published NCBI genetic sequence for the region of chromosome 7q that encodes TAS2R38 and overlay map the SNP variant markers to ensure the primers cover strategic regions of the TAS2R38 gene. For probing TAS2R38, 3 individual primer pairs were used for a comprehensive view of how the compound may be “hitting” the gene.

TAS2R38 gene [2] = assay: qPCR TAS2R38 gene expression in hTBEC 2 culture; format: cell-based, human; details: 1 μM; for Tas2R38 3prime 2^-ddct / Tas2R38 5prime 2^-ddct / Tas2R38C DS 2^-ddct: control = 1.000
Text: as §1

TAS2R38 gene [3] = assay: DNA microarray gene expression, MatTek full thickness tissue (EFT-200); format: cell-based, Homo sapiens; details: 0.05 ml solubilized xanthohumol liquid formulation 5 mg/ml, 48 hours; ratio >=1.3 = up-regulated
Text: The testing model used in this study is the MatTek full thickness tissue (EFT-200). This skin model consists of normal human-derived epidermal keratinocytes that have been cultured to form a multilayered, highly differentiated model of the human epidermis and human fibroblasts that have been seeded into a collagen matrix to form the dermis. This model also introduces a well-defined basement membrane between the epidermal and dermal layers, which is essential to enable in vivo like interactions between the keratinocytes and the fibroblasts.
Upon arrival, the MatTek ET-200 tissue was stored at 4° C. until used (they can be stored for up to 72 hours however tissue viability may decrease with prolonged storage). Prior to use, the tissues to be used were removed from the agarose-shipping tray and placed into a 6-well plate containing 2.0 ml of assay medium (37±2° C.). All of the agarose must be removed from the outside of the tissue culture insert since any residual agarose may prevent the assay medium from reaching the tissue. […]
At the end of the incubation any residual test material was removed from the tissues by rinsing them twice with at least 100 μl of PBS. […] These broader ranges are a more conservative judging criterion and account for possible sources of variation in fluorescence intensity that are not associated with the treatment. […]

[4] = hTBEC 1, 24 hour, vs control 24
[5] = hTBEC 1, 48 hour, vs control 48 hour
[6] = hTBEC 2, 24 hour, vs control 24
[7] = hTBEC 2, 48 hour, vs control 48 hour

Structure (SMILES) | Tas2R38 3prime 2^-ddct (TAS2R38 gene [1]; hTBEC 1, 24 hour) | Tas2R38 5prime 2^-ddct (TAS2R38 gene [1]; hTBEC 1, 24 hour) | Tas2R38C DS 2^-ddct (TAS2R38 gene [1]; hTBEC 1, 24 hour) | Tas2R38 3prime ddCT (TAS2R38 gene [1]; [4]) | Tas2R38 5prime ddCT (TAS2R38 gene [1]; [4]) | Tas2R38C DS ddCT (TAS2R38 gene [1]; [4]) | Tas2R38 3prime 2^-ddct (TAS2R38 gene [1]; hTBEC 1, 48 hour) | Tas2R38 5prime 2^-ddct (TAS2R38 gene [1]; hTBEC 1, 48 hour) | Tas2R38C DS 2^-ddct (TAS2R38 gene [1]; hTBEC 1, 48 hour) | Tas2R38 3prime ddCT (TAS2R38 gene [1]; [5]) | Tas2R38 5prime ddCT (TAS2R38 gene [1]; [5]) | Tas2R38C DS ddCT (TAS2R38 gene [1]; [5]) | Tas2R38 3prime 2^-ddct (TAS2R38 gene [2]; hTBEC 2, 24 hour) | Tas2R38 5prime 2^-ddct (TAS2R38 gene [2]; hTBEC 2, 24 hour) | Tas2R38C DS 2^-ddct (TAS2R38 gene [2]; hTBEC 2, 24 hour) | Tas2R38 3prime ddCT (TAS2R38 gene [2]; [6]) | Tas2R38 5prime ddCT (TAS2R38 gene [2]; [6]) | Tas2R38C DS ddCT (TAS2R38 gene [2]; [6]) | Tas2R38 3prime 2^-ddct (TAS2R38 gene [2]; hTBEC 2, 48 hour) | Tas2R38 5prime 2^-ddct (TAS2R38 gene [2]; hTBEC 2, 48 hour) | also measured
C=CCC(=NOS(=O)(=O)O)S[C@@H]1O[C@H](CO)[C@@H](O)[C@H](O)[C@H]1O (stereo in doubt) [sinigrin, reference compound] | 0.988 | 1.142 | 1.023 | 0.017 | −0.192 | −0.033 | 0.983 | 1.027 | 1.716 | 0.025 | −0.038 | −0.779 | 0.600 | 0.553 | 0.657 | 0.736 | 0.616 | 0.605 | 1.436 | 1.317 | Tas2R38C DS 2^-ddct (TAS2R38 gene [2]; hTBEC 2, 48 hour): 0.625; Tas2R38 3prime ddCT (TAS2R38 gene [2]; [7]): −0.524; Tas2R38 5prime ddCT (TAS2R38 gene [2]; [7]): −0.397; Tas2R38C DS ddCT (TAS2R38 gene [2]; [7]): 0.677
COc1cc(O)c(CC=C(C)C)c(O)c1C(=O)/C=C/c1ccc(O)cc1 [xanthohumol] | 2.024 | 3.983 | 2.785 | −1.017 | −1.994 | −1.478 | 0.664 | 1.368 | 4.109 | 0.591 | −0.452 | −2.039 | 2.013 | 2.609 | 1.779 | −1.009 | −1.383 | −0.831 | 0.995 | 0.624 | Ratio of Medians, TAS2R38 (NM_176817) up-regulation (TAS2R38 gene [3]): 21; up regulation of the TAS2R38 gene, higher than baseline or the Sinigrin control (TAS2R38 gene [1]; FIG. 1, 1 μM, within 24 hours, culture not stated): approximately 4 ×; Tas2R38C DS 2^-ddct (TAS2R38 gene [2]; hTBEC 2, 48 hour): 4.175; Tas2R38 3prime ddCT (TAS2R38 gene [2]; [7]): 0.007; Tas2R38 5prime ddCT (TAS2R38 gene [2]; [7]): 0.679; Tas2R38C DS ddCT (TAS2R38 gene [2]; [7]): −2.062
